Measurements published in US9981969B2, “Imidazole derivatives and methods of use thereof for improving the pharmacokinetics of a drug” (MERCK SHARP & DOHME CORP., priority 2013, dated 2018).

Tests used:
CYP2D6 = biological target: T1, CYP2D6 (Homo sapiens, UniProt P10635); assay: Cocktail assay for CYPs in human liver microsomes, dextromethorphan O-demethylation (2D6); assay type: biochemical; conditions: 5 μM dextromethorphan, 10 min at 37° C.
T1 construct: 0.1 mg/mL protein human liver microsomes (BD Gentest); tissue BD Gentest; host or cells: human liver microsomes
T1 sequence (P10635 whole entry): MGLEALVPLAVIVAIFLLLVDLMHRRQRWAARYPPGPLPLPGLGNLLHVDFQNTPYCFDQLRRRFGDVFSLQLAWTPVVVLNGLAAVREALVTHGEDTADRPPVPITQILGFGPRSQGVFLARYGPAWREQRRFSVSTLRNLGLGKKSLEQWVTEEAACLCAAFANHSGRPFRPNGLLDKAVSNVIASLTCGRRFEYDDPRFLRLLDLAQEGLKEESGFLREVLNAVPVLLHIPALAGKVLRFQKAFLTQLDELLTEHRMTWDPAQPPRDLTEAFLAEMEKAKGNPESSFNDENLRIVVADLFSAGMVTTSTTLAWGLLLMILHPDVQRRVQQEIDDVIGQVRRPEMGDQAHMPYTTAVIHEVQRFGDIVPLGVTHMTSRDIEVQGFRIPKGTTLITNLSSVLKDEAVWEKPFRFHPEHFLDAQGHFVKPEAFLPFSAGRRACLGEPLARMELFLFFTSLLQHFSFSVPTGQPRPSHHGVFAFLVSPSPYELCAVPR
Description: (§1) This assay was performed in a standard 96-well plate design. IC50 values were calculated from the percent inhibition observed for each test compound at 6 concentrations (for example, 0.0032, 0.016, 0.08, 0.4, 2 and 10 μM). The incubation substrate mix contains 10 μM phenacetin (1A2), 5 μM diclofenac (2C9), 30 μM mephenytoin (2C19), 5 μM dextromethorphan (2D6) and 2 μM midazolam (3A4), 0.1 mg/mL protein human liver microsomes (BD Gentest), 1 mM NAPDH, 3.3 mM MgCl2 and 100 mM potassium phosphate buffer (pH 7.4). The production of the metabolite of each probe substrate was determined after incubation for 10 min at 37° C. Quantitation of the metabolite peak area ratio against an internal standard (tolbutamide) was determined by LC/MS/MS analysis following acetonitrile treatment of the incubations.
(§2) Samples were analyzed in the MRM mode with a SCIEX API-4000 mass spectrometer (Applied Biosystems, Foster City, Calif.), with a Shimadzu LC-20 AD pump (Shimadzu corporation, Kyoto, JP) and a CTC PAL autosampler (Agilent Technologies, Switzerland). A Phenomenex, Luna, 5 μm, 100A, 2.00×30 mm HPLC column was used for the separation. The mobile phases were: (A) 0.1% formic acid in water and (B) 0.1% formic acid in acetonitrile. The binary gradient was as follows. AutoSampler: CTC PAL
(§3) The peak area ratio of the analyte to the internal standard was used to quantify the metabolite. The values of peak area ratios in the presence of test compound were compared to those of maximum or minimum controls and were expressed as % inhibition by interpolating between the maximum and minimum peak area ratios. Incubations with no inhibitor were defined as the maxima. The following equation was used to calculate the % inhibition: [1−[(X−Low control)/(High control−Low control)]]*100 For the IC50 calculation, SigmaPlot was used to plot the mean % inhibition versus the test compound concentrations and for non-linear regression analysis of the data. Depending on the range of data points defining the inhibition curve, the data may have been fit to the 4-parameter logistic equation.

CYP2C9 = biological target: T2, CYP2C9 (Homo sapiens, UniProt P11712); assay: Cocktail assay for CYPs in human liver microsomes, diclofenac 4′-hydroxylation (2C9); assay type: biochemical; conditions: 5 μM diclofenac, 10 min at 37° C.
T2 construct: 0.1 mg/mL protein human liver microsomes (BD Gentest); tissue BD Gentest; host or cells: human liver microsomes
T2 sequence (P11712 whole entry): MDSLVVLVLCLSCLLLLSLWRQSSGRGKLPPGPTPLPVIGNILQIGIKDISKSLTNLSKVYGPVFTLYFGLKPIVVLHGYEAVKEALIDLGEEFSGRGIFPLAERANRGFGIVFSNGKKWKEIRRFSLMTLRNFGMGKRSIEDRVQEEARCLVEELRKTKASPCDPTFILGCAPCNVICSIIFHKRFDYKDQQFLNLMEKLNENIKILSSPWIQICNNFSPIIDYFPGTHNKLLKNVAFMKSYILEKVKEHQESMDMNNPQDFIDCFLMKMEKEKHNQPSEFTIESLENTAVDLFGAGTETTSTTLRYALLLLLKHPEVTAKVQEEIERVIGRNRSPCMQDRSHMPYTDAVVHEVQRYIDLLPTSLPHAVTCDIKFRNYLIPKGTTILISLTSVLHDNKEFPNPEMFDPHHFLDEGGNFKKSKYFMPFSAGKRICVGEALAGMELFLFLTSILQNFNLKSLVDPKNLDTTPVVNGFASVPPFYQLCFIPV
Description: as §1, §2, §3

CYP2C19 = biological target: T3, CYP2C19 (Homo sapiens, UniProt P33261); assay: Cocktail assay for CYPs in human liver microsomes, mephenytoin 4′-hydroxylation (2C19); assay type: biochemical; conditions: 30 μM mephenytoin, 10 min at 37° C.
T3 construct: 0.1 mg/mL protein human liver microsomes (BD Gentest); tissue BD Gentest; host or cells: human liver microsomes
T3 sequence (P33261 whole entry): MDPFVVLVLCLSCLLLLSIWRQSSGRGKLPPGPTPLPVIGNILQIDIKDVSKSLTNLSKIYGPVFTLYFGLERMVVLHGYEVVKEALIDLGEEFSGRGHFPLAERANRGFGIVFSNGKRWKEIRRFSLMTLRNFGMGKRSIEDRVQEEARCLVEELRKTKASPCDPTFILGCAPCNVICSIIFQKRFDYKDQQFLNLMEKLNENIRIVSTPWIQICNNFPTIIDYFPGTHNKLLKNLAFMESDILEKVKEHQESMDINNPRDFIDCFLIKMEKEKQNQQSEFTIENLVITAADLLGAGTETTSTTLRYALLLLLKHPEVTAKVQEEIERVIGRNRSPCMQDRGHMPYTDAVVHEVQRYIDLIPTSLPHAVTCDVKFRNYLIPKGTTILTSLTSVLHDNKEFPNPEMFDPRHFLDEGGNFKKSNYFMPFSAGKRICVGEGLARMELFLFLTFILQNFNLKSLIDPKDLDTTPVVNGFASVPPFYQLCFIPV
Description: as §1, §2, §3

CYP1A2 = biological target: T4, CYP1A2 (Homo sapiens, UniProt P05177); assay: Cocktail assay for CYPs in human liver microsomes, phenacetin O-deethylation (1A2); assay type: biochemical; conditions: 10 μM phenacetin, 10 min at 37° C.
T4 construct: 0.1 mg/mL protein human liver microsomes (BD Gentest); tissue BD Gentest; host or cells: human liver microsomes
T4 sequence (P05177 1-516): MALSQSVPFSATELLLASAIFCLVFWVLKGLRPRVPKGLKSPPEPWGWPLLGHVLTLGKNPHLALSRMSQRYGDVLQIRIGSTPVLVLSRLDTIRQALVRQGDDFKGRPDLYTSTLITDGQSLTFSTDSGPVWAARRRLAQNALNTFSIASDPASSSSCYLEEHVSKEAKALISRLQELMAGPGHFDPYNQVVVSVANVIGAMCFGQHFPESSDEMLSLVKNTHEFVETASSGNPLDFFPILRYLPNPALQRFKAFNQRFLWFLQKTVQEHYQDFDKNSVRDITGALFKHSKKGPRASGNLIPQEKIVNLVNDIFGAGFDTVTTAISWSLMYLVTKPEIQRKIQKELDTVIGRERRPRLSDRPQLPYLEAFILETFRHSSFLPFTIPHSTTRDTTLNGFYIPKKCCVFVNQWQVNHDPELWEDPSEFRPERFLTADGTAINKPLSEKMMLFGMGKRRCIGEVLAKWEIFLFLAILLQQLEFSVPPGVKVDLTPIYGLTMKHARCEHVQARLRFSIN
Description: as §1, §2, §3

human CYP11B2 = biological target: T5, human CYP11B2 (Homo sapiens, UniProt P19099); assay: IC50 vs CYP11B2 by measurement of aldosterone synthesis in V79 cells; assay type: cell-based; conditions: V79 cells expressing human CYP11B2, 750 nM DOC, aldosterone HTRF
T5 construct: expressed in transfected cells
T5 sequence (P19099 25-503): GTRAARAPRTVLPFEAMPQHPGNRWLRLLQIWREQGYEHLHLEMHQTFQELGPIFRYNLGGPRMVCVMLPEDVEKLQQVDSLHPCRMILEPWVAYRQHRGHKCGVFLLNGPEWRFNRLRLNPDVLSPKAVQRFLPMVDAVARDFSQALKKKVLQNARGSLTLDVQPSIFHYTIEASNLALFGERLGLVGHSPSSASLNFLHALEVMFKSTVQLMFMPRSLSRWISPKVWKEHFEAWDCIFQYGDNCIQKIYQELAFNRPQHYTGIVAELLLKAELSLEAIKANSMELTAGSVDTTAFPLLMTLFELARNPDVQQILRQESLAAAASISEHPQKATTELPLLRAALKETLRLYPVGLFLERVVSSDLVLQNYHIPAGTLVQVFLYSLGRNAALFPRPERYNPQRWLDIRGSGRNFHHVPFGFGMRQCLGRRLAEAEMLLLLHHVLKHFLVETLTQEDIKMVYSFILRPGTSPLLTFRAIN
Description: (§4) This assay was performed in a standard 384-well plate design using cultured V79 cells stably expressing human CYP11B1 or human CYP11B2. Test compounds at 10 concentrations (for example, 10000, 3333.3, 1111.1, 370.4, 123.5, 41.2, 13.7, 4.6, 1.5 and 0.5 nM) were added in 384-well plate after the cell-seeding procedure. The incubation substrate contains 1500 nM RSS for CYP11B1 assay/750 nM DOC for CYP11B2 assay. The Cortisol/Aldosterone production of cell culture supernatant was determined by Cortisol/Aldosterone HTRF kit after for about 15 hours incubation at RT (protect from light). IC50 (nM) values were calculated from the percent inhibition observed for each test compound at 10 concentrations.
(§5) The assay plate was read using Envision (Perkin Elmer, Waltham, Mass.) at 665 nm and 590 nm (using Filter Barcode of 217#, 205#; Mirror Barcode of 446#).
(§6) Data are analyzed using Assay Data Analyzer. All ratio data (665 nm/590 nm) are back calculated according to the standard curve, resulting in Cortisol/Aldosterone concentrations. IC50 (nM) values are reported as the Inflection Point (IP) of a four parameter fit of the titration data.
(§7) The following equation was used to calculate the % inhibition: % Activity=100×{1−(Sample_back calculated Cortisol/Aldosterone concentration−LC_back calculated Cortisol/Aldosterone concentration)/(HC_back calculated Cortisol/Aldosterone concentration−LC_back calculated Cortisol/Aldosterone concentration)} Curve Fitting: Four Parameter Logistic: […]

human CYP11B1 = biological target: T6, human CYP11B1 (Homo sapiens, UniProt P15538); assay: IC50 vs CYP11B1 by measurement of cortisol synthesis in V79 cells; assay type: cell-based; conditions: V79 cells expressing human CYP11B1, 1500 nM RSS, cortisol HTRF
T6 construct: expressed in transfected cells
T6 sequence (P15538 25-503): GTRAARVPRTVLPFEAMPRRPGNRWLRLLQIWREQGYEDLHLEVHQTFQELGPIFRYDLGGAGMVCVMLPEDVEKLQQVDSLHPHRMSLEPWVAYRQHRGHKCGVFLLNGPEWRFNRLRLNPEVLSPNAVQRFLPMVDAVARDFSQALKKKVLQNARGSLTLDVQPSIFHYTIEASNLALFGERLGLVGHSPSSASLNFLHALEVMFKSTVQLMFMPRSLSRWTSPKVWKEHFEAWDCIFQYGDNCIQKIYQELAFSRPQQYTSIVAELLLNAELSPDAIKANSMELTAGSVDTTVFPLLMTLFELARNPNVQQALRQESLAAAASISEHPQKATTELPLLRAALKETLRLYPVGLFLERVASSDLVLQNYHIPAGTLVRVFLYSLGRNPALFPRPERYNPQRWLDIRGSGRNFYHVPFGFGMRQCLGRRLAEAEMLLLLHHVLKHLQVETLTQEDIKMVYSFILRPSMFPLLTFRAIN
Description: as §4, §5, §6, §7

CYP3A4 = biological target: T7, CYP3A4 (Homo sapiens, UniProt P08684); assay: Cocktail assay for CYPs in human liver microsomes, midazolam 1′-hydroxylation (3A4); assay type: biochemical; conditions: 2 μM midazolam, 10 min at 37° C.
T7 construct: 0.1 mg/mL protein human liver microsomes (BD Gentest); tissue BD Gentest; host or cells: human liver microsomes
T7 sequence (P08684 whole entry): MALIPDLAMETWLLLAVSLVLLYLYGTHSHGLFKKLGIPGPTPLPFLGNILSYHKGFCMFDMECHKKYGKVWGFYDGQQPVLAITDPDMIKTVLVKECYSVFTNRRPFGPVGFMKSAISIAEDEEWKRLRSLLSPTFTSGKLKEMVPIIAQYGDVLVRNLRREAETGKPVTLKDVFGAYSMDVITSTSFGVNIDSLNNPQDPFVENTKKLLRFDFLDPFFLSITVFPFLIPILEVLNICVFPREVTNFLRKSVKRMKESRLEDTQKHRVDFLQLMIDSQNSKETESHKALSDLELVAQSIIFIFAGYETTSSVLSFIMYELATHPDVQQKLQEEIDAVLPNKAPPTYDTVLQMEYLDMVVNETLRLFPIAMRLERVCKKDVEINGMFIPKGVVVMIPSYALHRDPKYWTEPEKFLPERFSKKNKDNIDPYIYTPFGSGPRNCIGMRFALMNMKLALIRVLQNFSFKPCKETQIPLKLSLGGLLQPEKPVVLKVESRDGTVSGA
Description: as §1, §2, §3

SMILES	IC50 (CYP2D6)	IC50 (CYP2C9)	IC50 (CYP2C19)	IC50 (CYP1A2)	IC50 (human CYP11B2)	IC50 (human CYP11B1)	IC50 (CYP3A4)
C[C@@H](c1ccccc1-c1ccc(F)cc1)n1cncc1C(=O)N1CCC(N2C[C@@H](O)[C@H](F)C2)CC1 [Compound 15]	> 10 µM	> 10 µM	> 10 µM	> 10 µM	> 50 µM	20.2 µM	0.0041 µM
C[C@@H](c1ccccc1C1CCCC1)n1cncc1C(=O)N1CCC2NCCO[C@@H]2C1 (stereo partly shown) [Compound 48]	> 10 µM	> 10 µM	> 10 µM	> 10 µM	15.5 µM	11.3 µM	0.0055 µM
C[C@@H](c1ccccc1-c1ccc(F)cc1)n1cncc1C(=O)N1CCC(N2CCNC(=O)C2)CC1 [Compound 20]	> 10 µM	> 10 µM	> 10 µM	> 10 µM	31.2 µM	16.8 µM	0.0045 µM
C[C@@H]1CN(C2CCN(C(=O)c3cncn3[C@@H](C)c3ccccc3-c3ccc(F)cc3)CC2)CC[C@@H]1O [Compound 17]	8.6 µM	> 10 µM	> 10 µM	> 10 µM	31.6 µM	11.5 µM	0.0049 µM
C[C@@H](c1ccccc1-c1ccc(F)cc1)n1cncc1C(=O)N1CCC(N2CCC[C@H](O)C2)CC1 [Compound 8]	> 10 µM	> 10 µM	> 10 µM	> 10 µM	> 50 µM	21 µM	0.0056 µM
C[C@@H](c1ccccc1-c1ccc(F)cc1)n1cncc1C(=O)N1CCC(NC2CCC(O)CC2)CC1 (stereo partly shown) [Compound 25]	5.85 µM	> 10 µM	> 10 µM	> 10 µM	> 50 µM	> 50 µM	0.0092 µM
C[C@@H](c1ccccc1C(C)(C)F)n1cncc1C(=O)N1CCC2NCCO[C@@H]2C1 (stereo partly shown) [Compound 46]	5.8 µM	> 10 µM	> 10 µM	> 10 µM	23.1 µM	> 50 µM	0.0109 µM
CO[C@@H]1CN(C2CCN(C(=O)c3cncn3[C@@H](C)c3ccccc3-c3ccc(F)cc3)CC2)C[C@H]1O [Compound 23]	9.72 µM	> 10 µM	> 10 µM	> 10 µM	> 50 µM	26.3 µM	0.0034 µM

Second part, the compound after the results:

IC50 (CYP2D6)	IC50 (CYP2C9)	IC50 (CYP2C19)	IC50 (CYP1A2)	IC50 (human CYP11B2)	IC50 (human CYP11B1)	IC50 (CYP3A4)	SMILES
> 10 µM	> 10 µM	> 10 µM	> 10 µM	41.5 µM	> 50 µM	0.0058 µM	C[C@@H](c1ccccc1-c1ccc(F)cc1)n1cncc1C(=O)N1CC[C@@H](N2CCNC(=O)C2)[C@@H](F)C1 [Compound 30]
9.1 µM	> 10 µM	> 10 µM	> 10 µM	25.8 µM	20.4 µM	0.0055 µM	COCc1ccccc1-c1ccccc1[C@H](C)n1cncc1C(=O)N1CCC2NCCO[C@@H]2C1 (stereo partly shown) [Compound 35]
9.45 µM	> 10 µM	> 10 µM	> 10 µM	> 50 µM	14.6 µM	0.0048 µM	C[C@@H](c1ccccc1-c1ccc(F)c(F)c1F)n1cncc1C(=O)N1CCC2NCCO[C@@H]2C1 (stereo partly shown) [Compound 39]
≥ 10 µM	> 10 µM	6.29 µM	> 10 µM	> 50 µM	14.6 µM	0.0064 µM	C[C@@H](c1ccccc1-c1ccc(F)cc1)n1cncc1C(=O)N1CCC(N2CCn3c(nnc3C(F)(F)F)C2)CC1 [Compound 26]
> 10 µM	> 10 µM	> 10 µM	> 10 µM	25.9 µM	33.3 µM	0.0095 µM	CCOc1ncccc1-c1ccccc1[C@H](C)n1cncc1C(=O)N1CCC2NCCO[C@@H]2C1 (stereo partly shown) [Compound 40]
> 10 µM	> 10 µM	> 10 µM	> 10 µM	> 50 µM	> 50 µM	0.0077 µM	C[C@@H](c1ccccc1CN1CCC(F)CC1)n1cncc1C(=O)N1CCC2NCCO[C@@H]2C1 (stereo partly shown) [Compound 45]
8.05 µM	> 10 µM	> 10 µM	> 10 µM	> 50 µM	21.2 µM	0.0068 µM	C[C@@H](c1ccccc1-c1ccccc1)n1cncc1C(=O)N1CCC2NCCO[C@@H]2C1 (stereo partly shown) [Compound 34]
7.48 µM	> 10 µM	> 10 µM	> 10 µM	> 50 µM	42.2 µM	0.0071 µM	C[C@@H](c1ccccc1-c1ccc(Cl)nc1)n1cncc1C(=O)N1CCC2NCCO[C@@H]2C1 (stereo partly shown) [Compound 41]
